What was measured:
[1] = target: T1, human B1R (bradykinin receptor 1) (Homo sapiens, UniProt P46663); experiment: FLIPR Ca2+ assay (Fluo-4) on CHO K1 cells stably transfected with the human B1R gene (hB1R cells): % inhibition at 10 μM / IC50, agonist Lys-Des-Arg9-bradykinin; format: cell-based; settings: CHO-K1, human B1R
T1 construct: expressed in transfected cells; host or cells: CHO K1 cells
T1 sequence (P46663 1-353): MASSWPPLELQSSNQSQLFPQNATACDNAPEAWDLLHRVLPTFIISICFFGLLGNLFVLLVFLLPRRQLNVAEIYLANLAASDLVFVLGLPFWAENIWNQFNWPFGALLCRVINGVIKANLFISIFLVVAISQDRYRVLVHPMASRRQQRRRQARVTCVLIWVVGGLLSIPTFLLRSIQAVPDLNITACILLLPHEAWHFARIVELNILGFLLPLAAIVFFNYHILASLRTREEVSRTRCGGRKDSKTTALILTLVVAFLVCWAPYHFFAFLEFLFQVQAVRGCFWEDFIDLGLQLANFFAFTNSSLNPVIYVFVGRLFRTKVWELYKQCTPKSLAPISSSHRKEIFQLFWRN
How it was run: (§1)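 Cells were Fluo-4-loaded, then test compound (10 μM, or a concentration series for IC50) was preincubated 10–20 min before agonist challenge at EC80: Lys-Des-Arg9-bradykinin for hB1R, Des-Arg9-bradykinin for rB1R. Peak Ca2+ fluorescence (ex 488/em 540 nm) gave % inhibition versus maximal achievable inhibition.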

[2] = target: T2, rat B1R (bradykinin receptor 1) (Rattus norvegicus, UniProt P97583); experiment: FLIPR Ca2+ assay (Fluo-4) on CHO K1 cells stably transfected with the B1R gene of the rat (rB1R cells): % inhibition at 10 μM / IC50, agonist Des-Arg9-bradykinin; format: cell-based; settings: CHO-K1, rat B1R
T2 construct: expressed in transfected cells; host or cells: CHO K1 cells
T2 sequence (P97583 1-337): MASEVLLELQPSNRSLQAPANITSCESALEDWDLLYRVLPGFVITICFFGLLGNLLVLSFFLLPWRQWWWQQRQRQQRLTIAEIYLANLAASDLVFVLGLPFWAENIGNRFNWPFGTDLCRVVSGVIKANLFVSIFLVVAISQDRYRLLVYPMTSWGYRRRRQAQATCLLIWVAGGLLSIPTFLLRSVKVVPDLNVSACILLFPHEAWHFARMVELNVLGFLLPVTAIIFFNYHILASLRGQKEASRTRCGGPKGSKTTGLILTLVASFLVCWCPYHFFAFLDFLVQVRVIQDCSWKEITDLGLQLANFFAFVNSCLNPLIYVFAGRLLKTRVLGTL
How it was run: as §1

Molecule `O=C(c1ccc2c(c1)C(NS(=O)(=O)Cc1ccccc1C(F)(F)F)CC2)N1CCC2(CC1)CCN(c1ccncc1)C2` (centres unmarked) [IND_CC-237, N-[6-(2-Pyridin-4-yl-2,8-diazaspiro[4.5]decane-8-carbonyl)-2,3-dihydro-1H-inden-1-yl]-1-[2-(trifluoromethyl)-phenyl]-methanesulfonic acid amide] has an inhibition at 10 µM [1] of 100% and an inhibition at 10 µM [2] of 98%.

With `CC1(C)Cc2ccc(C(=O)N3CCC4(CC3)CCN(c3ccncc3)CC4)cc2C1NS(=O)(=O)Cc1ccccc1C(F)(F)F` (centres unmarked) [IND_CC-238, N-[2,2-Dimethyl-6-(9-pyridin-4-yl-3,9-diazaspiro[5.5]undecane-3-carbonyl)-1,3-dihydro-inden-1-yl]-1-[2-(trifluoromethyl)-phenyl]-methanesulfonic acid amide] the inhibition at 10 µM [1] was 99% and the inhibition at 10 µM [2] was 100%.

`Cc1cccc(Cl)c1S(=O)(=O)NC1c2cc(C(=O)N3CCC4(CC3)CCN(c3ccncc3)CC4)ccc2CC1(C)C` (centres unmarked) [IND_CC-240, 2-Chloro-N-[2,2-dimethyl-6-(9-pyridin-4-yl-3,9-diazaspiro[5.5]undecane-3-carbonyl)-1,3-dihydro-inden-1-yl]-6-methyl-benzenesulfonic acid amide] gave an inhibition at 10 µM [1] of 95% and an inhibition at 10 µM [2] of 99%.

Work on `O=C(c1ccc2c(c1)C(NS(=O)(=O)CCc1ccccc1Cl)CC2)N1CCC2(CC1)CCN(c1ccncc1)CC2` (centres unmarked) [IND_CC-241, 2-(2-Chlorophenyl)-N-[6-(9-pyridin-4-yl-3,9-diazaspiro[5.5]undecane-3-carbonyl)-2,3-dihydro-1H-inden-1-yl]-ethanesulfonic acid amide] yielded an inhibition at 10 µM [1] of 95% and an inhibition at 10 µM [2] of 101%.

`CC1(C)Cc2ccc(C(=O)N3CCC4(CC3)CCN(c3ccncc3)CC4)cc2C1NS(=O)(=O)CCc1ccccc1Cl` (centres unmarked) [IND_CC-242, 2-(2-Chlorophenyl)-N-[2,2-dimethyl-6-(9-pyridin-4-yl-3,9-diazaspiro[5.5]-undecane-3-carbonyl)-1,3-dihydro-inden-1-yl]-ethanesulfonic acid amide] was tested, and the inhibition at 10 µM [1] was 94% and the inhibition at 10 µM [2] was 101%.

`CC1(C)CC(NC(=O)c2c(Cl)cccc2C(F)(F)F)c2cc(C(=O)N3CCC4(CC3)CCN(c3ccncc3)CC4)ccc21` (centres unmarked) [IND_CC-243, 2-Chloro-N-[3,3-dimethyl-6-(3-pyridin-4-yl-3,9-diazaspiro[5.5]undecane-9-carbonyl)-1,2-dihydro-inden-1-yl]-6-(trifluoromethyl)-benzamide] was tested, and the inhibition at 10 µM [1] was 100% and the inhibition at 10 µM [2] was 99%.

`CC1(C)CC(NC(=O)c2cc(Cl)ccc2Cl)c2cc(C(=O)N3CCC4(CC3)CCN(c3ccncc3)CC4)ccc21` (centres unmarked) [IND_CC-244, 2,5-Dichloro-N-[3,3-dimethyl-6-(3-pyridin-4-yl-3,9-diazaspiro[5.5]undecane-9-carbonyl)-1,2-dihydro-inden-1-yl]-benzamide] showed an inhibition at 10 µM [1] of 99% and an inhibition at 10 µM [2] of 103%.

`O=C(NC1CCc2ccc(C(=O)N3CCC4(CCN(c5ccncc5)CC4)C3)cc21)c1cc(Cl)ccc1Cl` (centres unmarked) [IND_CC-245, 2,5-Dichloro-N-[6-(8-pyridin-4-yl-2,8-diazaspiro[4.5]decane-2-carbonyl)-2,3-dihydro-1H-inden-1-yl]-benzamide] was tested, and the inhibition at 10 µM [1] was 100% and the inhibition at 10 µM [2] was 101%.

Work on `COc1ccc(C(=O)NC2CC(C)(C)c3ccc(C(=O)N4CCC5(CC4)CCN(c4ccncc4)CC5)cc32)c(Cl)c1` (centres unmarked) [IND_CC-246, 2-Chloro-N-[3,3-dimethyl-6-(3-pyridin-4-yl-3,9-diazaspiro[5.5]undecane-9-carbonyl)-1,2-dihydro-inden-1-yl]-4-methoxy-benzamide] yielded an inhibition at 10 µM [1] of 99% and an inhibition at 10 µM [2] of 100%.

Molecule `COc1ccc(C(=O)NC2CCc3ccc(C(=O)N4CCC5(CCN(c6ccncc6)CC5)C4)cc32)c(Cl)c1` (centres unmarked) [IND_CC-247, 2-Chloro-4-methoxy-N-[6-(8-pyridin-4-yl-2,8-diazaspiro[4.5]decane-2-carbonyl)-2,3-dihydro-1H-inden-1-yl]-benzamide] has an inhibition at 10 µM [1] of 99% and an inhibition at 10 µM [2] of 102%.

Molecule `Cc1ccc(F)c(C(=O)NC2CC(C)(C)c3ccc(C(=O)N4CCC5(CC4)CCN(c4ccncc4)CC5)cc32)c1Cl` (centres unmarked) [IND_CC-248, 2-Chloro-N-[3,3-dimethyl-6-(3-pyridin-4-yl-3,9-diazaspiro[5.5]undecane-9-carbonyl)-1,2-dihydro-inden-1-yl]-6-fluoro-3-methyl-benzamide] has an inhibition at 10 µM [1] of 90% and an inhibition at 10 µM [2] of 102%.

Molecule `Cc1ccc(F)c(C(=O)NC2CCc3ccc(C(=O)N4CCC5(CCN(c6ccncc6)CC5)C4)cc32)c1Cl` (centres unmarked) [IND_CC-249, 2-Chloro-6-fluoro-3-methyl-N-[6-(8-pyridin-4-yl-2,8-diazaspiro[4.5]decane-2-carbonyl)-2,3-dihydro-1H-inden-1-yl]-benzamide] has an inhibition at 10 µM [1] of 99% and an inhibition at 10 µM [2] of 99%.

For `CC1(C)CC(NC(=O)c2cc(C(F)(F)F)ccc2Cl)c2cc(C(=O)N3CCC4(CC3)CCN(c3ccncc3)CC4)ccc21` (centres unmarked) [IND_CC-250, 2-Chloro-N-[3,3-dimethyl-6-(3-pyridin-4-yl-3,9-diazaspiro[5.5]undecane-9-carbonyl)-1,2-dihydro-inden-1-yl]-5-(trifluoromethyl)-benzamide], the inhibition at 10 µM [1] was 94% and the inhibition at 10 µM [2] was 100%.

With `O=C(NC1CCc2ccc(C(=O)N3CCC4(CCN(c5ccncc5)CC4)C3)cc21)c1cc(C(F)(F)F)ccc1Cl` (centres unmarked) [IND_CC-251, 2-Chloro-N-[6-(8-pyridin-4-yl-2,8-diazaspiro[4.5]decane-2-carbonyl)-2,3-dihydro-1H-inden-1-yl]-5-(trifluoromethyl)-benzamide] the inhibition at 10 µM [1] was 100% and the inhibition at 10 µM [2] was 99%.

In the case of `CC1(C)CC(NC(=O)c2cc(F)ccc2Cl)c2cc(C(=O)N3CCC4(CC3)CCN(c3ccncc3)CC4)ccc21` (centres unmarked) [IND_CC-252, 2-Chloro-N-[3,3-dimethyl-6-(3-pyridin-4-yl-3,9-diazaspiro[5.5]undecane-9-carbonyl)-1,2-dihydro-inden-1-yl]-5-fluoro-benzamide], the inhibition at 10 µM [1] is reported as 100% and the inhibition at 10 µM [2] is reported as 102%.

Molecule `O=C(NC1CCc2ccc(C(=O)N3CCC4(CCN(c5ccncc5)CC4)C3)cc21)c1cc(F)ccc1Cl` (centres unmarked) [IND_CC-253, 2-Chloro-5-fluoro-N-[6-(8-pyridin-4-yl-2,8-diazaspiro[4.5]decane-2-carbonyl)-2,3-dihydro-1H-inden-1-yl]-benzamide] has an inhibition at 10 µM [1] of 100% and an inhibition at 10 µM [2] of 100%.

In the case of `CC1(C)CC(NC(=O)c2cccc(C(F)(F)F)c2Cl)c2cc(C(=O)N3CCC4(CC3)CCN(c3ccncc3)CC4)ccc21` (centres unmarked) [IND_CC-254, 2-Chloro-N-[3,3-dimethyl-6-(3-pyridin-4-yl-3,9-diazaspiro[5.5]undecane-9-carbonyl)-1,2-dihydro-inden-1-yl]-3-(trifluoromethyl)-benzamide], the inhibition at 10 µM [1] is reported as 97% and the inhibition at 10 µM [2] is reported as 105%.

Molecule `O=C(NC1CCc2ccc(C(=O)N3CCC4(CCN(c5ccncc5)CC4)C3)cc21)c1cccc(C(F)(F)F)c1Cl` (centres unmarked) [IND_CC-255, 2-Chloro-N-[6-(8-pyridin-4-yl-2,8-diazaspiro[4.5]decane-2-carbonyl)-2,3-dihydro-1H-inden-1-yl]-3-(trifluoromethyl)-benzamide] has an inhibition at 10 µM [1] of 100% and an inhibition at 10 µM [2] of 100%.

With `CC1(C)CC(NS(=O)(=O)Cc2ccccc2C(F)(F)F)c2cc(C(=O)N3CCC4(CC3)CCN(c3ccncc3)CC4)ccc21` (centres unmarked) [IND_CC-256, N-[3,3-Dimethyl-6-(3-pyridin-4-yl-3,9-diazaspiro[5.5]undecane-9-carbonyl)-1,2-dihydro-inden-1-yl]-1-[2-(trifluoromethyl)-phenyl]-methanesulfonic acid amide] the inhibition at 10 µM [1] was 99% and the inhibition at 10 µM [2] was 100%.

With `O=C(c1ccc2c(c1)C(NS(=O)(=O)Cc1ccccc1C(F)(F)F)CC2)N1CCC2(CCN(c3ccncc3)CC2)C1` (centres unmarked) [IND_CC-258, N-[6-(8-Pyridin-4-yl-2,8-diazaspiro[4.5]decane-2-carbonyl)-2,3-dihydro-1H-inden-1-yl]-1-[2-(trifluoromethyl)-phenyl]-methanesulfonic acid amide] the inhibition at 10 µM [1] was 100% and the inhibition at 10 µM [2] was 95%.

`Cc1cccc(Cl)c1S(=O)(=O)NC1CC(C)(C)c2ccc(C(=O)N3CCC4(CC3)CCN(c3ccncc3)CC4)cc21` (centres unmarked) [IND_CC-259, 2-Chloro-N-[3,3-dimethyl-6-(3-pyridin-4-yl-3,9-diazaspiro[5.5]undecane-9-carbonyl)-1,2-dihydro-inden-1-yl]-6-methyl-benzenesulfonic acid amide] showed an inhibition at 10 µM [1] of 99% and an inhibition at 10 µM [2] of 100%.

`CC1(C)CC(NS(=O)(=O)CCc2ccccc2Cl)c2cc(C(=O)N3CCC4(CC3)CCN(c3ccncc3)CC4)ccc21` (centres unmarked) [IND_CC-260, 2-(2-Chlorophenyl)-N-[3,3-dimethyl-6-(3-pyridin-4-yl-3,9-diazaspiro[5.5]-undecane-9-carbonyl)-1,2-dihydro-inden-1-yl]-ethanesulfonic acid amide] was tested, and the inhibition at 10 µM [1] was 100% and the inhibition at 10 µM [2] was 100%.

— patent publication US8455475B2 (Gruenenthal GmbH, priority 2009, dated 2013)
